The term IC50 denotes the concentration that gives 50% inhibition. By inhibition is commonly meant the relative decrease from the control value, in per cent. The low end stands for a response near the control, the high end for a response far below the control.

Experiment [1] concerns MCF7. The experiment in a line: Anti-invasive activity against human MCF7 cells at 100 umol/L after 12 hrs by giemsa staining based light microscopic analysis relative to control. The experiment is classed as functional.
Experiment [2] deals with SW480. The experiment in a line: Cytotoxicity against human SW480 cells after 4 hrs by MTT assay. The experiment is classed as functional, cell-based. The conditions noted are these: SW480, 4 h. For orientation: Tetrazolium assays rely on reduction of a dye to a coloured formazan, in cell work by metabolically active cells.
For experiment [3], the system named is MCF7. The experiment in a line: Cytotoxicity against human MCF7 cells. The experiment is classed as functional, cell-based.
The test system of experiment [4] is WiDr. The experiment in a line: Cytotoxicity against human WiDr cells after 4 hrs by MTT assay. The experiment is classed as functional, cell-based.
Experiment [5] deals with T47D. Nature of the experiment: Cytotoxicity against human T47D cells. The experiment is classed as functional, cell-based.
For experiment [6], the system named is EL4. Nature of the experiment: Induction of apoptosis in mouse EL4 cells at 50 umol/L after 72 hrs relative to control. The experiment is classed as functional.
Experiment [7] relates to HT-1080. Nature of the experiment: Decrease in UPA expression in human HT1080 cells. The experiment is classed as functional, cell-based.
Experiment [8] can be described thus: Cytotoxicity against […] cells by MTT assay. The experiment is classed as functional, cell-based.
Experiment [9] in a line: Cytotoxicity against human SW116 cells after 4 hrs by MTT assay. As to conditions: SW116, 4 h. The experiment is classed as functional, cell-based.
Experiment [10] has as its system Colon 26. The experiment in a line: Cytotoxicity against mouse Colon 26 cells after 4 hrs by MTT assay. As to conditions: Colon 26, 4 h. The experiment is classed as functional, cell-based.
Experiment [11] deals with DLD-1. Nature of the experiment: Cytotoxicity against human DLD1 cells. The experiment is classed as functional, cell-based.
Experiment [12] is described as follows: Cytotoxicity against human HPL1D cells. The experiment is classed as functional, cell-based.
For experiment [13], the system named is KM12. Nature of the experiment: Cytotoxicity against human KM12 cells after 4 hrs by MTT assay. The experiment is classed as functional, cell-based. The conditions noted are these: KM12, 4 h.
In experiment [14] the test system is HeLa. The experiment in a line: Cytotoxicity against human HeLa cells. The experiment is classed as functional, cell-based.
Experiment [15] relates to CCD-841CoN. The experiment in a line: Cytotoxicity against human CRL1790 cells. The experiment is classed as functional, cell-based.
Experiment [16] concerns Hep 3B2. Nature of the experiment: Cytotoxicity against human Hep3B cells. The experiment is classed as functional, cell-based.
Experiment [17] concerns HaCaT. The experiment in a line: Cytotoxicity against human HaCaT cells. The experiment is classed as functional, cell-based.
The subject of experiment [18] is HT-29. Nature of the experiment: Cytotoxicity against human HT-29 cells. The experiment is classed as functional, cell-based.
The test system of experiment [19] is BT-474. The experiment in a line: Cytotoxicity against human BT474 cells. The experiment is classed as functional, cell-based.
Experiment [20] deals with HT-29. Nature of the experiment: Cytotoxicity against human HT-29 cells after 4 hrs by MTT assay. The experiment is classed as functional, cell-based. As to conditions: HT-29, 4 h.
In experiment [21] the test system is Caco-2. Nature of the experiment: Cytotoxicity against human Caco2 cells by MTT assay. The experiment is classed as functional, cell-based.
The target of experiment [22] is 72 kDa type IV collagenase (Homo sapiens) (UniProt P08253). The experiment in a line: Inhibition of MMP2 (unknown origin).
Chain of 72 kDa type IV collagenase (Homo sapiens) (P08253 110-660 limits assumed): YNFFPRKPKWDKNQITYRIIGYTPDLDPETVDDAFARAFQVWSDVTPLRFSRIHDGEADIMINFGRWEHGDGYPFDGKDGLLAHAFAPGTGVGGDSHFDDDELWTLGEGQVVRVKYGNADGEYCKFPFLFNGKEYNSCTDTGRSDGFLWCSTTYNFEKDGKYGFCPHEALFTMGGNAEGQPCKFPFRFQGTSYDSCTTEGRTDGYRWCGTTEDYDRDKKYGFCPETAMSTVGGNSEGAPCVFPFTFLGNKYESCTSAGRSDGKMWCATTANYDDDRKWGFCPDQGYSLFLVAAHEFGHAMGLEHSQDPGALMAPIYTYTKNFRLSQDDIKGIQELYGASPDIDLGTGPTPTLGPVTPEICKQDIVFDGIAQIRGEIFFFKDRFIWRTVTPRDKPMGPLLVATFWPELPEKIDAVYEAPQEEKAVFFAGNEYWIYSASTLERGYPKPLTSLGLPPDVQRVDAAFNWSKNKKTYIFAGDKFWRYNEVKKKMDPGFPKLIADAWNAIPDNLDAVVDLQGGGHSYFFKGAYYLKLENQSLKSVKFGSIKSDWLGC
Experiment [23] has as its system SK-OV-3. Nature of the experiment: Induction of apoptosis in human SKOV3 cells at 40 umol/L after 48 hrs by annexin-V-FITC/propidium iodide staining-based flow cytometric method relative to control. The experiment is classed as functional. In general terms: A flow cytometer gives signals particle by particle.
For experiment [24], the system named is SK-OV-3. Nature of the experiment: Induction of apoptosis in human SKOV3 cells at 20 umol/L after 48 hrs by annexin-V-FITC/propidium iodide staining-based flow cytometric method relative to control. The experiment is classed as functional.
The subject of experiment [25] is SK-OV-3. Nature of the experiment: Induction of apoptosis in human SKOV3 cells at 80 umol/L after 48 hrs by annexin-V-FITC/propidium iodide staining-based flow cytometric method relative to control. The experiment is classed as functional.
In experiment [26] the test system is MDA-MB-231. Nature of the experiment: Increase in MMP3 level in human MDA-MB-231 cells after 24 hrs by ELISA. The experiment is classed as functional, cell-based. As to conditions: MDA-MB-231, 24 h. A general note: An ELISA detects its analyte on a solid surface through an enzyme-linked reagent.
Experiment [27] has as its target Fibroblast growth factor receptor 1 (Homo sapiens) (UniProt P11362). Nature of the experiment: Inhibition of FGFR1 (unknown origin) relative to control. As to conditions: concentration not given here.
The target in experiment [28] is Fibroblast growth factor receptor 2 (Homo sapiens) (UniProt P21802). The experiment in a line: Inhibition of FGFR2 (unknown origin) relative to control. The conditions noted are these: concentration not given here.
Chain of Fibroblast growth factor receptor 2 (Homo sapiens) (P21802 22-821 limits assumed): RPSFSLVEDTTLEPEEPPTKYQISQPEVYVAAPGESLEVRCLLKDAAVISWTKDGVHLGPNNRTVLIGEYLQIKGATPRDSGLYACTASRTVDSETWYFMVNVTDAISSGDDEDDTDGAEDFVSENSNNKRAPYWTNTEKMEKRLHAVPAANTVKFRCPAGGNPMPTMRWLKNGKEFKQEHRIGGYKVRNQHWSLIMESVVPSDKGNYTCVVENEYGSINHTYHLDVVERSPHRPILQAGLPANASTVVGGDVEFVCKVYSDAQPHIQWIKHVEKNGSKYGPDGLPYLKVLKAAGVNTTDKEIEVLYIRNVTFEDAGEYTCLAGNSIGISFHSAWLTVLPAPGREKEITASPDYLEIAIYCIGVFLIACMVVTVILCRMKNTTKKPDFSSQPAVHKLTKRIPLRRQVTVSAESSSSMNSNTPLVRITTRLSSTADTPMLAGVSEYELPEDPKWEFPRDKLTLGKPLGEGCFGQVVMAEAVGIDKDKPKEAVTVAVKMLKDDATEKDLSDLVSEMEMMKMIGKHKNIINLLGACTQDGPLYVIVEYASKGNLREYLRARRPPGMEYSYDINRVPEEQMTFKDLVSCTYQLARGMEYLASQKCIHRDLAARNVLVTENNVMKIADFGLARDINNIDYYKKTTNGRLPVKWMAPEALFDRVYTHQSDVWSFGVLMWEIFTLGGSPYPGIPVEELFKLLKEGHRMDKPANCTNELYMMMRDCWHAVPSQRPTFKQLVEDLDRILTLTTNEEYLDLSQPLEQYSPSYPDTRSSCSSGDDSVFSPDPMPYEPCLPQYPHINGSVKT
Experiment [29] deals with TT. The experiment in a line: Cytotoxicity against human TT cells by trypan blue dye-based assay. The experiment is classed as functional, cell-based.
Experiment [30] deals with HepG2. Nature of the experiment: Cytotoxicity against human HepG2 cells by MTT/SRB assay. The experiment is classed as functional, cell-based.
Experiment [31] concerns Caco-2. The experiment in a line: Cytotoxicity against human Caco2 cells by MTT/SRB assay. The experiment is classed as functional, cell-based.
Experiment [32] has as its system HT-29. The experiment in a line: Cytotoxicity against human HT-29 cells by MTT/SRB assay. The experiment is classed as functional, cell-based.
Experiment [33] concerns CHO-K1. Nature of the experiment: Cytotoxicity against CHOK1 cells by MTT/SRB assay. The experiment is classed as functional, cell-based. As to conditions: Cricetulus griseus.
In experiment [34] the test system is PC-3. The experiment in a line: Cytotoxicity against human PC3 cells. The experiment is classed as functional, cell-based.
Experiment [35] concerns DU-145. Nature of the experiment: Cytotoxicity against human DU145 cells. The experiment is classed as functional, cell-based.
The subject of experiment [36] is DU-145. Nature of the experiment: Potentiation of PTX-induced anticancer activity in human DU145 cells assessed as reduction in PTX IC50 (reference value: 13.5 nmol/L). The experiment is classed as functional, cell-based.

Chain of Fibroblast growth factor receptor 1 (Homo sapiens) (P11362 22-822 limits assumed): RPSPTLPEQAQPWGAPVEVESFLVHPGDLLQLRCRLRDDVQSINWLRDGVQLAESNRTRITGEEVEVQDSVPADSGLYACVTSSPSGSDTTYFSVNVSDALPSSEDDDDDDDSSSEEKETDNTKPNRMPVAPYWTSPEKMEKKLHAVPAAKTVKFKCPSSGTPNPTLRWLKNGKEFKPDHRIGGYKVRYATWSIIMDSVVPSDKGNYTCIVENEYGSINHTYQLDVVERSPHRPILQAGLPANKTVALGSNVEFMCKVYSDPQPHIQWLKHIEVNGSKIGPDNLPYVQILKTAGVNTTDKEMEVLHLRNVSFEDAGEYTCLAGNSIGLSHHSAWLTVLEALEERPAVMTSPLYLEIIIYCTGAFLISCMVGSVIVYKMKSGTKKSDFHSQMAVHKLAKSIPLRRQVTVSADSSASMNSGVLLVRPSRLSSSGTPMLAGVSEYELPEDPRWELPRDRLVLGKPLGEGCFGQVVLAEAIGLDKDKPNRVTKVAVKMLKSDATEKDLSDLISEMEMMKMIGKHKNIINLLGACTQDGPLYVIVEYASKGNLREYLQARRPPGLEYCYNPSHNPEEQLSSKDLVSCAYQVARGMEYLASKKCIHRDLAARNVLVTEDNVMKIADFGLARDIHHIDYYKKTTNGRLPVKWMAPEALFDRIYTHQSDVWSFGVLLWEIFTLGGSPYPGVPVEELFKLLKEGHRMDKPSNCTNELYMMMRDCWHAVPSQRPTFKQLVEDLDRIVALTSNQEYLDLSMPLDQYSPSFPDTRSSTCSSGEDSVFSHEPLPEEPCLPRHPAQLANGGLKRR

`O=C(CC(=O)c1ccccc1)c1ccccc1` [DIBENZOYLMETHANE]: the Activity in experiment [1] was 84%.

Regarding `COc1cc(/C=C/C(=O)CC(=O)/C=C/c2ccc(O)c(OC)c2)ccc1O` [CURCUMIN], the IC50 in [2] came out at 17.9 µM; in experiment [3], 19.9 µM; in experiment [4] it was 26.8 µM; in experiment [5] it was 11 µM; in [7], 10 µM; in experiment [8], 8.5 µM. The IC50 was found to be 27.5 µM in experiment [9]; 30.3 µM in experiment [10]; 146 µM in experiment [11]; 16 µM in experiment [12]; 16 µM in experiment [13]; 8.2 µM in experiment [14]. Further, the IC50 came out at 105 µM in experiment [15]; 10 µM in [16]; 13 µM in experiment [17]; 132 µM in experiment [18]; 11 µM in experiment [19]; 20.7 µM in experiment [20]. In [6], the Activity turned out to be 95%.

In turn, `CCOC(=O)CCC(=O)Oc1ccc(/C=C/C(=O)/C=C(O)/C=C/c2ccc(OC(=O)CCC(=O)OCC)c(OC)c2)cc1OC` came in with an IC50 in experiment [21] of 1.84 µM.

On to `CCCCC[C@H](O)CC(=O)CCc1ccc(O)c(OC)c1`, for which the INH in experiment [22] is > 10 µmol/L.

Regarding `COc1cc(/C=C/C(=O)C(Cc2ccc(O)c(OC)c2)C(=O)/C=C/c2ccc(O)c(OC)c2)ccc1O`, the IC50 was found to be 4.78 µM in [2]; 7.32 µM in experiment [4]; 7.08 µM in experiment [9]; 8.91 µM in experiment [10] (read-out: IC50); 3.9 µM in experiment [13]; 5.42 µM in experiment [20].

Turning to `COc1cc(/C=C/C(=O)CC(=O)/C=C/c2ccc(O)cc2)ccc1O`, the Activity turned out to be 51.5% in experiment [23], 35.1% in experiment [24] and 70.7% in experiment [25]. Also, the IC50 is 7.5 µM in experiment [7] and 9 µM in experiment [26].

On to `COc1cc(/C=C/C(=O)O)ccc1O` [FERULATE], for which the inhibition came to 92% in experiment [27] and 64% in [28]. Moreover, inhibition in [29] was half-maximal at 150 µM (IC50).

`O=C(/C=C(O)/C=C/c1c[nH]c2ccccc12)/C=C/c1c[nH]c2ccccc12`: the IC50 in [30], in experiment [31], in experiment [32] and in experiment [33] was 3.3 to 12.1 µM throughout.

As to `C/C1=C\CC(C)(C)/C=C/C(=O)/C(C)=C/CC1` [ZERUMBONE], the IC50 in experiment [34] stood at 9.1 µM; in [35], 6.9 µM; in [36], 0.0055 µM.

The record behind these values is ChEMBL document CHEMBL4304785, “Recent advances of analogues of curcumin for treatment of cancer” (Eur J Med Chem, 2019).
